Where a SMILES comes first, the peptide text is derived from it. Where no end group is shown, it is not given here.
What follows are compounds tested against T1, human TNFα (Homo sapiens, UniProt P01375) (assay: p55 Receptor/IgG Fusion Protein Binding Assay (inhibition of TNFα capture by p55-Ig coated plate)). Details: peptide 1 mM; TNFα 25 ng/ml.
T1 construct: purchased Biosource, Camarillo, Calif
T1 sequence (P01375 77-233 limits assumed): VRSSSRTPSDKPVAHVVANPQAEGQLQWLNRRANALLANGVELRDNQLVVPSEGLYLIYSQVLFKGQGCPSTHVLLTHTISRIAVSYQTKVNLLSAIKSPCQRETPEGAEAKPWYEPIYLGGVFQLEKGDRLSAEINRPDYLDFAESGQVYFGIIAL
Experimental: This assay was designed to identify peptides which bind to human TNFα and thereby prevent the capture of the TNFα by a microtiter plate coated with p55-Ig fusion protein. A constant concentration of human TNFα is preincubated with the test peptide and then incubated on the p55-Ig coated microtiter wells. Bound TNFα is detected using a specific antisera and an alkaline phosphatase-conjugated probe.
A 96-well, U-bottom polyvinylchloride microtiter plate was coated with 50 μl/well of p55-Ig fusion protein at 5 μg/ml in 0.01M sodium phosphate, 0.15M sodium chloride (PBS) by incubation overnight at 4° C. or 2 hours at 37° C. The fusion protein, which consists of a p55 TNF receptor protein portion and an IgG portion, can be produced as disclosed in U.S. application Ser. No. 08/010,406 filed Jan. 29, 1993 which is incorporated herein by reference. The plate was washed three times with 0.05% Tween-20 in PBS, then blocked, by adding 150 μl/well of assay buffer (10 mM N-2-hydroxyethylpiperazine-N'-[…] (HEPES) pH 7.2, containing 0.1% porcine gelatin, 0.1% Tween-80, and 0.01% sodium azide) and continuing incubation for 1 hour at 37° C. or at 4° C. for 1-7 days.
Lyophilized peptides to be tested were weighed in tared 12×75 mm polystyrene tubes and reconstituted to a concentration of 1.2 mM with assay buffer. Each suspension was sonicated in a water bath for 1-5 minutes and vortexed 15-30 seconds to disperse large particles. Serial dilutions of each peptide suspension were prepared using assay buffer in a 96-well polystyrene microtiter plate. Additional wells received Fab fragment of the mouse/human monoclonal anti-human TNFα antibody cA2 (positive control) or assay buffer (negative control). […] The polystyrene dilution plate was then sealed and incubated 1 hour at room temperature on an orbital mixer set at moderate speed.
Following the sample preincubation, blocker was discarded from the p55-Ig coated plate and blotted dry. Aliquots (50 μl) of each peptide or control were transferred into duplicate wells on the p55-Ig coated plate which was then sealed and incubated i hour at 37° C. Duplicate wells containing only assay buffer were included as a plate blank. After incubation the p55-Ig plate was washed three times with 0.05% Tween-20 in PBS.
To detect TNFα captured by the p55-Ig plate, all wells were incubated in succession with polyclonal rabbit anti-human TNFα (Genzyme, Boston, Mass.; 1:500 in assay buffer, 50 μl/well), biotinylated goat anti-rabbit Ig (H&L) (Vector Laboratories, Burlingame, Calif.; 1 μg/ml in assay buffer, 50 μl/well) and streptavidin-alkaline phosphatase conjugate (Pierce, Rockford, Ill.; 1 μg/ml in assay buffer, 50 μl/well). All incubations were for 1 hour at 37° C. and after each incubation the plate was washed three times with 0.05% Tween-20 in PBS. Fifty microliters of alkaline phosphatase substrate solution (alkaline buffer (Sigma, St. Louis, Mo.) diluted 1:500 in deionized water plus one 5 mg tablet of p-nitrophenyl phosphate (Sigma, St. Louis, Mo.) per 5 ml of diluted buffer) was added to all wells and incubation continued for 20 minutes at room temperature. Color development was stopped by adding to all wells 50 μl of 3N sodium hydroxide. The optical density (OD) at 405 nm was measured on a microtiter plate reader (Molecular Devices Vmax plate reader), with the plate blank wells subtracted as background. The activity of each peptide was then expressed as the percent inhibition of TNFα capture by the p55-Ig plate, relative to the amount of TNFα captured in wells containing only assay buffer (negative control), as follows: % inhibition=100-((mean OD peptide/mean OD negative control)×100).
The inhibition of binding of TNFα to p55TNFr-IgG chimeric construct was performed as described above using several embodiments of the invention. The peptides were tested at a concentration of 1 mM.
For “SEQ ID NO:50: peptide of the invention that inhibits TNFα; sequence not printed (VAIPGNASRDAVATS)”, the “inhibition of binding of TNFα to p55TNFr-IgG chimeric construct” value (from here on “inhibition of binding of TNFα”) was 29%. “SEQ ID NO:46: peptide of the invention that inhibits TNFα; sequence not printed (SNTTSSTDIARPHQI)” was tested, and the “inhibition of binding of TNFα” value was 66%. With “SEQ ID NO:52: peptide of the invention that inhibits TNFα; sequence not printed (ASRDAVATSTSPTRS)” the “inhibition of binding of TNFα” value was 63%. “SEQ ID NO:42: peptide of the invention that inhibits TNFα; sequence not printed (SSDQVETQAATREQN)” was tested, and the “inhibition of binding of TNFα” value was 40%. For “SEQ ID NO:45: peptide of the invention that inhibits TNFα; sequence not printed (GTFSNTTSSTDIARP; also: C-terminal blocking group)”, the “inhibition of binding of TNFα” value was 73%.

Same assay, conditions: peptide 1 mM; TNFα 25 ng/ml; read-out: inhibition of binding of TNFα to p55TNFr-IgG chimeric construct
In the case of CC(C)C[C@H](NC(=O)[C@H](Cc1c[nH]cn1)NC(=O)[C@@H](NC(=O)[C@H](C)NC(=O)CN)C(C)C)C(=O)N1CCC[C@H]1C(=O)N[C@@H](CCC(N)=O)C(=O)N1CCC[C@H]1C(=O)N[C@H](C(=O)N[C@@H](CO)C(=O)N[C@H](C(=O)N[C@@H](CCCNC(=N)N)C(=O)N[C@@H](CO)C(=O)N[C@@H](CCC(N)=O)C(=O)N[C@@H](Cc1c[nH]cn1)C(N)=O)[C@@H](C)O)C(C)C [SEQ ID NO:55] (H-GAVHLPQPVSTRSQH-NH2), the inhibition at 1000 µM is reported as 60%. CSCC[C@H](NC(=O)[C@@H]1CCCN1C(=O)[C@H](CC(C)C)NC(=O)[C@H](CC(C)C)NC(=O)[C@H](Cc1ccccc1)NC(=O)[C@H](CO)NC(=O)[C@@H](NC(=O)[C@H](CO)NC(=O)[C@@H]1CCCN1C(=O)[C@H](C)N)[C@@H](C)O)C(=O)NCC(=O)N1CCC[C@H]1C(=O)N[C@@H](CO)C(=O)N1CCC[C@H]1C(=O)N1CCC[C@H]1C(N)=O [SEQ ID NO:62] (H-APSTSFLLPMGPSPP-NH2) gave an inhibition at 1000 µM of 62%. Work on CC(C)C[C@H](NC(=O)[C@H](CCCCN)NC(=O)[C@@H](NC(=O)[C@H](CS)NC(=O)[C@H](CCC(=O)O)NC(=O)[C@H](CC(C)C)NC(=O)[C@H](CO)NC(=O)[C@H](CCCCN)NC(=O)[C@H](CCCCN)NC(=O)[C@H](CS)NC(=O)[C@H](CC(N)=O)NC(=O)[C@H](CO)NC(=O)[C@H](CS)NC(=O)[C@H](CO)NC(=O)[C@@H](NC(=O)[C@H](CS)NC(=O)[C@H](CCC(=O)O)NC(=O)[C@H](CC(N)=O)NC(=O)[C@H](CCC(=O)O)NC(=O)[C@@H](N)CCCNC(=N)N)C(C)C)[C@@H](C)O)C(=O)O [SEQ ID NO:20, Arginyl-glutamyl-asparaginyl-glutamyl-cysteinyl-valyl-seryl-cysteinyl-seryl-asparaginyl-cysteinyl-lysyl-lysyl-seryl-leucyl-glutamyl-cysteinyl-threonyl-lysyl-leucine] (H-RENECVSCSNCKKSLECTKL-OH) yielded an inhibition at 1000 µM of 26%. Compound CC[C@H](C)[C@H](NC(=O)[C@H](CCC(N)=O)NC(=O)[C@@H]1CCCN1C(=O)[C@H](CC(C)C)NC(=O)[C@H](C)NC(=O)[C@H](CC(C)C)NC(=O)[C@H](CCCCN)NC(=O)[C@@H](NC(=O)[C@H](C)NC(=O)[C@H](CCC(=O)O)NC(=O)[C@H](CC(C)C)NC(=O)[C@@H](N)CO)[C@@H](C)O)C(=O)N[C@@H](CCC(=O)O)C(=O)N[C@@H](CC(N)=O)C(=O)N[C@H](C(N)=O)C(C)C [SEQ ID NO:21, Seryl-leucyl-glutamyl-alanyl-threonyl-lysyl-leucyl-alanyl-leucyl-prolyl-glutaminyl-isoleucyl-glutamyl-asparaginyl-valine Amide] (H-SLEATKLALPQIENV-NH2) has an inhibition at 1000 µM of 50%. For CC(C)[C@H](N)C(=O)N[C@@H](Cc1ccccc1)C(=O)N[C@@H](C)C(=O)N[C@H](C(=O)N[C@@H](CCCCN)C(=O)N[C@H](C(=O)N[C@@H](CO)C(=O)N[C@@H](CC(=O)O)C(=O)N[C@H](C(=O)N[C@H](C(=O)N[C@@H](C)C(=O)N[C@@H](CC(=O)O)C(=O)N[C@@H](CO)C(=O)N[C@@H](C)C(=O)N[C@@H](CCC(=O)O)C(N)=O)C(C)C)[C@@H](C)O)[C@@H](C)O)[C@@H](C)O [SEQ ID NO:32] (H-VFATKTSDTVADSAE-NH2), the inhibition at 1000 µM was 64%. Work on CC(=O)N[C@@H](CC(C)C)C(=O)N[C@@H](Cc1ccccc1)C(=O)N[C@@H](CCC(N)=O)C(=O)N[C@@H](C)C(=O)N[C@@H](Cc1ccccc1)C(=O)N[C@@H](CC(N)=O)C(=O)N[C@@H](C)C(=O)N[C@@H](CO)C(=O)N[C@@H](CC(C)C)C(=O)N[C@@H](C)C(=O)N[C@@H](CC(C)C)C(=O)N[C@@H](CC(N)=O)C(=O)NCC(=O)N[C@H](C(=O)N[C@H](C(N)=O)C(C)C)[C@@H](C)O [SEQ ID NO:12, Acetyl-leucyl-phenylalanyl-glutaminyl-alanyl-phenylalanyl-asparaginyl-alanyl-seryl-leucyl-alanyl-leucyl-asparaginyl-glycyl-threonyl-valine Amide] (Ac-LFQAFNASLALNGTV-NH2) yielded an inhibition at 1000 µM of 40%. For CC(C)C[C@H](NC(=O)[C@H](C)NC(=O)[C@H](CC(C)C)NC(=O)[C@H](CO)NC(=O)[C@H](C)NC(=O)[C@H](CC(N)=O)NC(=O)[C@H](Cc1ccccc1)NC(=O)[C@H](C)N)C(=O)N[C@@H](CC(N)=O)C(=O)NCC(=O)N[C@H](C(=O)N[C@H](C(=O)N[C@@H](Cc1c[nH]cn1)C(=O)N[C@@H](CC(C)C)C(=O)N[C@@H](CO)C(N)=O)C(C)C)[C@@H](C)O [SEQ ID NO:14] (H-AFNASLALNGTVHLS-NH2), the inhibition at 1000 µM was 29%. CC(C)C[C@H](N)C(=O)N[C@@H](Cc1ccc(O)cc1)C(=O)N[C@@H](CC(N)=O)C(=O)N[C@@H](CC(=O)O)C(=O)N[C@@H](C)C(=O)N1CCC[C@H]1C(=O)NCC(=O)N1CCC[C@H]1C(=O)NCC(=O)N[C@@H](CCC(N)=O)C(=O)N[C@@H](CC(=O)O)C(=O)N[C@H](C(=O)N[C@@H](CC(=O)O)C(=O)N[C@@H](C)C(=O)N[C@@H](CCCNC(=N)N)C(N)=O)[C@@H](C)O [SEQ ID NO:1, Leucyl-tyrosyl-asparaginyl-aspartyl-alanyl-prolyl-glycyl-prolyl-glycyl-glutaminyl-aspartyl-threonyl-aspartyl-alanyl-arginine Amide] (H-LYNDAPGPGQDTDAR-NH2) showed an inhibition at 1000 µM of 46%. CSCC[C@H](NC(=O)[C@H](CCC(N)=O)NC(=O)[C@H](C)NC(=O)[C@@H](NC(=O)[C@H](CCC(N)=O)NC(=O)[C@H](CC(=O)O)NC(=O)[C@H](Cc1ccc(O)cc1)NC(=O)[C@H](Cc1ccc(O)cc1)NC(=O)[C@@H](N)CCC(=O)O)[C@@H](C)O)C(=O)N[C@@H](C)C(=O)N[C@@H](C)C(=O)N[C@@H](CO)C(=O)N[C@@H](CCCCN)C(=O)N[C@@H](C)C(=O)N[C@@H](CO)C(N)=O [SEQ ID NO:30] (H-EYYDQTAQMAASKAS-NH2) gave an inhibition at 1000 µM of 59%. With CC(C)[C@H](NC(=O)[C@H](CCCCN)NC(=O)[C@H](C)NC(=O)[C@@H](N)Cc1c[nH]cn1)C(=O)N[C@@H](Cc1ccccc1)C(=O)N[C@@H](C)C(=O)N[C@H](C(=O)N[C@@H](CCCCN)C(=O)N[C@H](C(=O)N[C@@H](CO)C(=O)N[C@@H](CC(=O)O)C(=O)N[C@H](C(=O)N[C@H](C(=O)N[C@@H](C)C(=O)N[C@@H](CC(=O)O)C(N)=O)C(C)C)[C@@H](C)O)[C@@H](C)O)[C@@H](C)O [SEQ ID NO:31] (H-HAKVFATKTSDTVAD-NH2) the inhibition at 1000 µM was 68%.

Same assay, conditions: various concentrations of peptide
For “SEQ ID NO:45: peptide of the invention that inhibits TNFα; sequence not printed (GTFSNTTSSTDIARP; also: C-terminal blocking group)”, the “dose dependent inhibition of TNFα (FIG. 1)” value was “dose dependent inhibition”.
